The text below walks through data of paper PMC5587642, “A Novel Benzocoumarin-Stilbene Hybrid as a DNA ligase I inhibitor with in vitro and in vivo anti-tumor activity in breast cancer models” (Scientific Reports, 2017).

Structures are written as SMILES.

Experiment [1] relates to MCF-10A (Normal breast epithelial cells). Briefly: MTT cell viability assay. Type of experiment: cell-based, human. As for the experimental part:
(§1) Cell viability assay was performed as described previously. Briefly, cells were seeded in 96 well plates and treated with different concentrations of compound 19 for 48 h. After drug treatment, MTT reagent was added in each well of the plate and cell viability was quantified by measuring the absorbance at 590 nm.
For orientation: Tetrazolium assays rely on reduction of a dye to a coloured formazan, in cell work by metabolically active cells.

In experiment [2] the test system is MDA-MB-231 cells. Briefly: MTT cell viability assay. The format is cell-based, human. The conditions noted are these: for IC50: MTT, 48 h. The procedure:
as §1

For another experiment, the target named is T1, hLigI (Homo sapiens, UniProt P18858).
T1 construct: made in house
T1 sequence (P18858 whole entry): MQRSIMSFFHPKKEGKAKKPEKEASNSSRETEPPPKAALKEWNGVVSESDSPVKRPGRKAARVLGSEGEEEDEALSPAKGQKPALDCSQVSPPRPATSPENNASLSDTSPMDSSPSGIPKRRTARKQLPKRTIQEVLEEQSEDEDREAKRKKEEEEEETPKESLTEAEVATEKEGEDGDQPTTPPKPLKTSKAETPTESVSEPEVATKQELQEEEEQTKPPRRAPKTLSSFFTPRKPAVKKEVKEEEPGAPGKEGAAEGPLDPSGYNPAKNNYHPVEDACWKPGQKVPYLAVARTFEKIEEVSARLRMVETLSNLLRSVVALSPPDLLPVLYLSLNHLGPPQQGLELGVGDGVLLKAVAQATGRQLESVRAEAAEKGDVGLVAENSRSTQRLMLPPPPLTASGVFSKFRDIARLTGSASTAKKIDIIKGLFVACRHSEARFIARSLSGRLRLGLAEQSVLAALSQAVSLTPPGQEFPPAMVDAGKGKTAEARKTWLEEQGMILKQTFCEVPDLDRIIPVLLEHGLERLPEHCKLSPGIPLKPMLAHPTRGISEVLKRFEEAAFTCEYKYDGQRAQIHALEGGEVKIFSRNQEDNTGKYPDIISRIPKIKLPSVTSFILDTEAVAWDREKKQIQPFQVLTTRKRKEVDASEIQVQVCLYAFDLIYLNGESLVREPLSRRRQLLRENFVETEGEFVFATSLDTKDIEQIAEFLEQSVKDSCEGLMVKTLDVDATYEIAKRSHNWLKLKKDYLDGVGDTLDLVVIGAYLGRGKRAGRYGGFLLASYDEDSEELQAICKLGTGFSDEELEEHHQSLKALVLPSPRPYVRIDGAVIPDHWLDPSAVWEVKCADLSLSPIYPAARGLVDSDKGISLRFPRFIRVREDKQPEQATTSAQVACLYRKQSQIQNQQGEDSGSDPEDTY
Kind of experiment: Circular dichroism study. The conditions noted are these: 5 and 10 µM. The format is binding. The procedure:
We followed previously described protocol for CD studies[40] with small modifications. Briefly, emission spectra of hLigI (100 pmol) was recorded at a wavelength of 190-250 nm in the presence (5 and 10 µM) or absence of compound 19 by spectropolarimeter. The raw values in mdeg were obtained and used for mean residual ellipticity [θ] calculation. The graph was generated by the plotting the value of mean residue ellipticity in deg cm^2 dmol^−1 with respect to wavelength.

The target in experiment [3] is T2, flap cleavage activity (FEN1) in MDA-MB-231 cell lysate (Homo sapiens, UniProt P39748).
T2 construct: endogenous in cells; host or cells: MDA-MB-231
T2 sequence (P39748 whole entry): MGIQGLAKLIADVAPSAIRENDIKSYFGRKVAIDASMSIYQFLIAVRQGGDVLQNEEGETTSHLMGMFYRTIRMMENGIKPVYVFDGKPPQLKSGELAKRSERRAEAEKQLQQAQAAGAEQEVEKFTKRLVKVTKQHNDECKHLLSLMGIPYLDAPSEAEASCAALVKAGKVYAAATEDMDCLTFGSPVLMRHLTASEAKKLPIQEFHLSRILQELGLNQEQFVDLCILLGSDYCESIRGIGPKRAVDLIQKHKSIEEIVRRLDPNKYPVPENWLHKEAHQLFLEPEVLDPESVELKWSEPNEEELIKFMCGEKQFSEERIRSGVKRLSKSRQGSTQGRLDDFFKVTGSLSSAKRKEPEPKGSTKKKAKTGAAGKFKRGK
Kind of experiment: Ex-vivo flap cleavage with lysate of treated cells. The format is cell-based. Conditions: MDA-MB-231, treated 48 h. The procedure: (§2) Cells (MDA-MB-231) were seeded in 6 well plates and treated either with vehicle control (DMSO) or with different concentrations (6 and 12 µM) of compound 19 for 48 h. After the treatment cell lysate was prepared and western blotting was performed as described previously. Briefly, the cells were lysed by very brief sonication. Sonicated samples were centrifuged and the supernatant was collected and used for ligation assay and western blotting.
(§3) The MDA-MB-231 and 4T1 cells were treated with different concentrations of compound 19 for 48h. Cell lysate were prepared as described previously ^6 for the ligation assay. Here we used same DNA substrate which was used in FEN1 flap cleavage assay so that we can check the activity of hLigI and FEN1 proteins in compound 19 treated samples. The reactions were performed as described previously ^6. In the Supplementary Fig. 74 cleaved product remain (25 mer) same. This cleaved product occurs after the cleavage of 25+6 mer oligo by FEN1 protein, since the cleaved product (25 mer) remains same in treated as well as in control samples we can conclude that the compound 19 unable to inhibit the FEN1 protein inside the cells. The cleaved product (25 mer) make a double strand nicked substrate for hLig I protein with 27 mer and 52 mer oligo used in the reaction. hLigI protein gives rise to ligated (52 mer oligo) product after the completion of reaction. […]

The test system of experiment [4] is DNA ligase activity in 4T1 cell lysate. Kind of experiment: Ex-vivo ligation assay with lysate of treated cells. The format is cell-based, mouse. Conditions: 4T1, treated 48 h. The procedure: The MDA-MB-231 and 4T1 cells were treated with different concentrations of compound 19 for 48h. Cell lysate were prepared as described previously ^6 for the ligation assay. Here we used same DNA substrate which was used in FEN1 flap cleavage assay so that we can check the activity of hLigI and FEN1 proteins in compound 19 treated samples. The reactions were performed as described previously ^6. In the Supplementary Fig. 74 cleaved product remain (25 mer) same. This cleaved product occurs after the cleavage of 25+6 mer oligo by FEN1 protein, since the cleaved product (25 mer) remains same in treated as well as in control samples we can conclude that the compound 19 unable to inhibit the FEN1 protein inside the cells. The cleaved product (25 mer) make a double strand nicked substrate for hLig I protein with 27 mer and 52 mer oligo used in the reaction. hLigI protein gives rise to ligated (52 mer oligo) product after the completion of reaction. In the treated samples, ligated product (52 mer) decreases as compared to untreated samples.

The subject of experiment [5] is MDA-MB-231 cells. Kind of experiment: Western blotting of DNA damage and apoptosis markers. The format is cell-based, human. Conditions: 6 and 12 µM, 48 h. As for the experimental part: as §2
Background: In western blotting, separated proteins are transferred to a membrane and probed.

In another experiment the test system is SK-OV-3 (Ovary). Briefly: MTT cell viability assay. Type of experiment: cell-based. As for the experimental part: as §1
For a further experiment, the system named is A549 (Lung). Briefly: MTT cell viability assay. The format is cell-based. The procedure:
as §1

A further experiment relates to A172 (Brain). Briefly: MTT cell viability assay. The format is cell-based. As for the experimental part: as §1
The next experiment concerns PLC/PRF/5 (Liver). Briefly: MTT cell viability assay. Type of experiment: cell-based. The procedure:
as §1

The subject of the next experiment is DLD1 (Colon). Kind of experiment: MTT cell viability assay. Type of experiment: cell-based. As for the experimental part: as §1
In another experiment the test system is PANC-1 (Pancreas). Kind of experiment: MTT cell viability assay. Type of experiment: cell-based. As for the experimental part: as §1
The test system of experiment [6] is 4T1 (Mouse Breast Cancer). Briefly: MTT cell viability assay. The format is cell-based. The procedure: as §1
Experiment [7] concerns HEK-293 (Non-cancerous cell). Briefly: MTT cell viability assay. The format is cell-based. As for the experimental part:
as §1

A further experiment has as its target T3, FEN1 protein (Homo sapiens, UniProt P39748).
T3 construct: His-tag (C); made in house; host or cells: E. coli BL21DE3
Kind of experiment: Flap cleavage assay. The format is biochemical. The conditions noted are these: compound 19 at 5, 10, 20 µM. As for the experimental part: Purification of FEN 1: Full length FEN1 DNA template was taken from pShuttle-FEN1hWT, a gift from Sheila Stewart (Addgene plasmid#35027) is subcloned into a pET41a expression vector containing C-terminal His-tag. pET41FEN1His freshly transformed into expression host BL21DE3 E. coli cells (Novagene), single colonies picked and inoculated in 5ml of LB media containing 50μg/ml of Kanamycin, grown for 3 to 4 hrs and further subcultured in 100 ml of LB medium containing 50μg/ml of Kanamycin and grown at 37°C till the OD reached to 0.6-0.7, induced at 0.5 mM IPTG at 16°C for 18hrs. Pellets were collected and lysed in 20 mM tris 150 mM NaCl (Lysis buffer) containing 1mM PMSF and 1mM benzamidine hydrochloride and purified by Ni-NTA affinity chromatography.
Flap cleavage assay: All oligos were purchased from Integrated DNA Technologies and dissolved in nuclase free water at concentration of 100μM. FAM-labeled 25+6 Flap-mer (5’-[…]-3’*6FAM)) was annealed with 52- mer (5’-[…]-3’) and 27-mer (5’-[…]-3’) to form a complementary double strand flap cleavage substrate. […] The cleaved and uncleaved DNA molecules are separated on 15% Urea gel and bands were detected by Image Quant LAS 4010 (GE Healthcare).

The target of experiment [8] is T4, DNA ligation (hLigI) in MDA-MB-231 cell lysate (Homo sapiens, UniProt P18858).
T4 construct: endogenous in cells; host or cells: MDA-MB-231
T4 sequence (P18858 whole entry): as the sequence (P18858 whole entry) above
Briefly: Ex-vivo ligation assay with lysate of treated cells. The format is cell-based. Conditions: MDA-MB-231, treated 48 h. As for the experimental part:
as §2, §3

By IC50 is commonly meant the concentration needed to halve the response being measured. A higher IC50 goes with weaker potency.

T3 sequence (P39748 whole entry): as the sequence (P39748 whole entry) above

`COc1cc(/C=C/c2cc(=O)oc3c2ccc2ccccc23)cc(OC)c1` [Compound 19, (E)-4-(3,5-dimethoxystyryl)-2H-benzo[h]chromen-2-one]: the “% Inhibition of cell viability at 10 µM, MCF-10A (Normal breast epithelial cells)” value in [1] amounted to 50.83%. The “% Inhibition of cell viability at 10 µM, MDA-MB-231 (Breast)” value in the experiment with MDA-MB-231 cells [2] (10 µM) is 51.35%. The inhibition at 10 µM in the experiment with MDA-MB-231 cells [2] (Homo sapiens, MDA-MB-231, 48 h, 10 μM, % inhibition, read-out: Antiproliferative activity at 10μM in MDA-MB-231) was over 50%. Also, the IC50 amounted to 12.5 ± 2.8 µM in the experiment on MDA-MB-231 cells [2] (Homo sapiens, MDA-MB-231, 48 h); 12 µM in the experiment on MDA-MB-231 cells [2]; 11.6 ± 1.7 µM in experiment [6] (Mus musculus, MTT, 48 h). The “Comparative cell viability versus parent compounds” value with MDA-MB-231 cells [2] (MDA-MB-231, versus Neo-tanshinlactone and resveratrol) was “more active as compared to parent compounds”. Moreover, at hLigI, the “Conformational change of hLigI (CD)” value was “promoted conformational changes in protein”. Besides, the “Flap cleavage activity of lysate of treated cells” value in experiment [3] was “remained unaffected”. Also, the “DNA ligase activity in cell free extracts of treated cells” value in experiment [4] is recorded as “can inhibit DNA ligase activity”. Moreover, in the experiment on MDA-MB-231 cells [5], the “Apoptotic signaling (p53, MDM2, PCNA, caspase 9, caspase 3, PARP-1)” value is “promotes p53 mediated intrinsic pathway of apoptosis”. In the experiment on MDA-MB-231 cells [5], the “DNA damage marker γH2AX expression” value is “increased expression of γH2AX”. Moreover, in the experiment with SK-OV-3 (Ovary), the “% Inhibition of cell viability at 10 µM, SK-OV-3 (Ovary)” value is recorded as “NA (NA= Not active (% Inhibition <30%))”. Besides, in the experiment on A549 (Lung), the “% Inhibition of cell viability at 10 µM, A549 (Lung)” value is “NA (NA= Not active (% Inhibition <30%))”. For the same compound, in the experiment with A172 (Brain), the “% Inhibition of cell viability at 10 µM, A172 (Brain)” value was found to be 43.71%. In the experiment on PLC/PRF/5 (Liver), the “% Inhibition of cell viability at 10 µM, PLC/PRF/5 (Liver)” value is “NA (NA= Not active (% Inhibition <30%))”. For the same compound, in the experiment on DLD1 (Colon), the “% Inhibition of cell viability at 10 µM, DLD1 (Colon)” value was found to be 42.64%. In addition, the “% Inhibition of cell viability at 10 µM, PANC-1 (Pancreas)” value with PANC-1 (Pancreas) was determined as 50.32%. Also, in [6] (10 µM), the “% Inhibition of cell viability at 10 µM, 4T1 (Mouse Breast Cancer)” value is given as 53.18%. Further, the “% Inhibition of cell viability at 10 µM, HEK-293 (Non-cancerous cell)” value in [7] is 37.83%. Besides, the “Inhibition of FEN1 flap cleavage activity” value at FEN1 protein is given as “not able to inhibit”. Also, the “DNA ligation capacity of lysate of treated cells” value in [8] is “reduced capacity for DNA ligation”.
